For the test, the system named is BDF1 mice, B16 melanoma ip, median survival T/C. The test is described as follows: NCI In Vivo Anticancer Drug Screen. Data for tumor model B16 Melanoma (intraperitoneal) in B6D2F1 (BDF1) mice. The settings on record: endpoint: median survival time, higher = longer survival. The essentials: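 Compounds were tested in mice carrying transplantable tumors. Survival or tumor size was recorded, and each value is the treated-group measurement (T) divided by that of the vehicle-treated control group (C).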

Setting [1] is: dose: 12.5 mg/kg/injection, schedule: Q01DX009 (ip), vehicle: saline.
Setting [2] is: dose: 25.0 mg/kg/injection, schedule: Q01DX009 (ip), vehicle: saline.
Setting [3] is: dose: 50.0 mg/kg/injection, schedule: Q01DX009 (ip), vehicle: saline.
Where [4] appears, read: dose: 3.12 mg/kg/injection, schedule: Q01DX009 (ip), vehicle: suspension in saline.
[5] abbreviates: dose: 6.25 mg/kg/injection, schedule: Q01DX009 (ip), vehicle: suspension in saline.
The mark [6] stands for this setting: dose: 50.0 mg/kg/injection, schedule: Q01DX009 (ip), vehicle: saline with Tween-80.
[7] abbreviates: dose: 100.0 mg/kg/injection, schedule: Q01DX009 (ip), vehicle: saline with Tween-80.
The mark [8] stands for this setting: dose: 200.0 mg/kg/injection, schedule: Q01DX009 (ip), vehicle: saline with Tween-80.
Where [9] appears, read: dose: 25.0 mg/kg/injection, schedule: Q01DX009 (ip), vehicle: saline with Tween-80.
The mark [10] stands for this setting: dose: 12.5 mg/kg/injection, schedule: Q01DX009 (ip), vehicle: saline with Tween-80.
[11] abbreviates: dose: 0.75 mg/kg/injection, schedule: Q01DX009 (ip), vehicle: Klucel (hydroxypropylcellulose) (HPC).
[12] abbreviates: dose: 50.0 mg/kg/injection, schedule: Q01DX009 (ip), vehicle: Klucel (hydroxypropylcellulose) (HPC).
[13] abbreviates: dose: 100.0 mg/kg/injection, schedule: Q01DX009 (ip), vehicle: Klucel (hydroxypropylcellulose) (HPC).
Where [14] appears, read: dose: 6.25 mg/kg/injection, schedule: Q01DX009 (ip), vehicle: saline.
Setting [15] is: dose: 12.5 mg/kg/injection, schedule: Q01DX009 (ip), vehicle: Klucel (hydroxypropylcellulose) (HPC).
Setting [16] is: dose: 25.0 mg/kg/injection, schedule: Q01DX009 (ip), vehicle: Klucel (hydroxypropylcellulose) (HPC).

Values joined by “and” are separate entries in the source; they are usually repeats but may differ in a detail not shown here. Equal values may be shown once. Toxic doses and inconclusive results are not listed.

In the case of `O=C1CC(c2ccc(OCN(CCCl)CCCl)cc2)CC(=O)C1CN(CCCl)CCCl` (stereo not given), the T/C is 97 % of control (dose: 0.5 mg/kg/injection, schedule: Q01DX009 (ip), vehicle: Klucel (hydroxypropylcellulose) (HPC)); 100 % of control (dose: 1.0 mg/kg/injection, schedule: Q01DX009 (ip), vehicle: Klucel (hydroxypropylcellulose) (HPC)); 100 % of control (dose: 2.0 mg/kg/injection, schedule: Q01DX009 (ip), vehicle: Klucel (hydroxypropylcellulose) (HPC)); 99 % of control (dose: 4.0 mg/kg/injection, schedule: Q01DX009 (ip), vehicle: Klucel (hydroxypropylcellulose) (HPC)); 104 % of control (dose: 8.0 mg/kg/injection, schedule: Q01DX009 (ip), vehicle: Klucel (hydroxypropylcellulose) (HPC)).
As to `CCCNCCCN`, the T/C under setting [1] was 102 % of control, the T/C under setting [2] was 105 % of control and the T/C under setting [3] was 89 % of control.
For `O=c1[nH]c2c(ccc3cnccc32)c2c1CCC2`, the T/C is, setting by setting: under setting [4], 97 % of control; under setting [5], 104 % of control.
Turning to `NNC(=O)c1ccc(N)cc1`, the T/C is 112 % of control under setting [6], 102 % of control under setting [7] and 97 % of control under setting [8].
On to `CCOC(=O)c1cc(C(=O)OCC)c(=O)oc1OCC`, for which the T/C under setting [9] is 102 % of control, the T/C under setting [6] was 100 % of control and the T/C under setting [7] was 100 % of control.
In the case of `CC(C)C(=O)[O][Sn]([c]1ccccc1)([c]1ccccc1)[c]1ccccc1`, the T/C runs as follows: (dose: 3.0 mg/kg/injection, schedule: Q01DX009 (ip), vehicle: saline with Tween-80) 108 % of control; (dose: 6.0 mg/kg/injection, schedule: Q01DX009 (ip), vehicle: saline with Tween-80) 105 % of control; (dose: 12.0 mg/kg/injection, schedule: Q01DX009 (ip), vehicle: saline with Tween-80) 124 % of control; under setting [10], 100 % of control.
On to `CSCS(=O)C[C@H](CO)NC(=O)/C=C/c1c(C)[nH]c(=O)[nH]c1=O` (stereo not given in full), for which the T/C (dose: 0.06 mg/kg/injection, schedule: Q01DX009 (ip), vehicle: Klucel (hydroxypropylcellulose) (HPC)) is 95 % of control; the T/C (dose: 0.08 mg/kg/injection, schedule: Q01DX009 (ip), vehicle: water) was 99 % of control; the T/C (dose: 0.15 mg/kg/injection, schedule: Q01DX009 (ip), vehicle: water) is 105 % of control; the T/C (dose: 0.3 mg/kg/injection, schedule: Q01DX009 (ip), vehicle: water) was 108 % of control; the T/C (dose: 0.6 mg/kg/injection, schedule: Q01DX009 (ip), vehicle: water) is 91 % of control; the T/C (dose: 0.98 mg/kg/injection, schedule: Q04DX003 (ip), vehicle: saline) is 94 % of control. In addition, the T/C (dose: 1.4 mg/kg/injection, schedule: Q04DX003 (ip), vehicle: saline) was 113 % of control and the T/C (dose: 2.0 mg/kg/injection, schedule: Q04DX003 (ip), vehicle: saline) is 101 % of control.
Regarding `CC(=O)[O][Pb]([CH2]C(C)C)([CH2]C(C)C)[CH2]C(C)C`, the T/C was 94 % of control (dose: 0.09 mg/kg/injection, schedule: Q01DX009 (ip), vehicle: Klucel (hydroxypropylcellulose) (HPC)); 98 % of control (dose: 0.19 mg/kg/injection, schedule: Q01DX009 (ip), vehicle: Klucel (hydroxypropylcellulose) (HPC)); 93 % of control (dose: 0.38 mg/kg/injection, schedule: Q01DX009 (ip), vehicle: Klucel (hydroxypropylcellulose) (HPC)); 88 % of control and 98 % of control under setting [11].
As to `c1ccc(-c2cnoc2-c2ccccc2)cc1`, the T/C was 100 % of control under setting [12]; 107 % of control under setting [13]; 100 % of control (dose: 200.0 mg/kg/injection, schedule: Q01DX009 (ip), vehicle: Klucel (hydroxypropylcellulose) (HPC)).
`C[N+](C)(C)c1ncnc2c1ncn2C1CCCO1` (stereo not given): the T/C by setting is: under setting [14], 111 % of control; under setting [1], 105 % of control; under setting [2], 108 % of control; under setting [3], 111 % of control; (dose: 100.0 mg/kg/injection, schedule: Q01DX009 (ip), vehicle: saline) 117 % of control.
Regarding `CCN(C(=O)CCl)C(C)(C)C(SSSC(c1ccc(Cl)cc1)C(C)(C)N(CC)C(=O)CCl)c1ccc(Cl)cc1` (stereo not given), the T/C is 100 % of control under setting [15] and 98 % of control under setting [16].
Consider `COC1CCC2=C(C1)C(=O)CC1c3ccccc3CN21` (stereo not given), for which the T/C under setting [10] is 86 % of control; the T/C (dose: 12.5 mg/kg/injection, schedule: Q04DX003 (ip), vehicle: saline with Tween-80) is 92 % of control; the T/C under setting [9] was 93 % of control; the T/C (dose: 25.0 mg/kg/injection, schedule: Q04DX003 (ip), vehicle: saline with Tween-80) was 105 % of control; the T/C under setting [6] was 93 % of control; the T/C (dose: 50.0 mg/kg/injection, schedule: Q04DX003 (ip), vehicle: saline with Tween-80) is 97 % of control.
On to `CCCCCC[N+](CCCCCC)(CCCCCC)CCCCCC`, for which the T/C runs as follows: under setting [11], 88 % of control; (dose: 1.5 mg/kg/injection, schedule: Q01DX009 (ip), vehicle: Klucel (hydroxypropylcellulose) (HPC)) 90 % of control.
In the case of `c1ccc2c(NCCCCCCNc3c4ccccc4nc4ccccc34)c3ccccc3nc2c1`, the T/C by setting is: (dose: 1.25 mg/kg/injection, schedule: Q01DX009 (ip), vehicle: Klucel (hydroxypropylcellulose) (HPC)) 124 % of control; (dose: 10.0 mg/kg/injection, schedule: Q01DX009 (ip), vehicle: Klucel (hydroxypropylcellulose) (HPC)) 174 % of control; (dose: 20.0 mg/kg/injection, schedule: Q01DX009 (ip), vehicle: Klucel (hydroxypropylcellulose) (HPC)) 179 % of control.
For `[Cl][Pt][Cl].[NH-]C(CO)C(=O)O` (stereo not given), the T/C (dose: 12.5 mg/kg/injection, schedule: Q01DX009 (ip), vehicle: water) is 151 % of control.
For the compound `CCOC1=CCN(S(=O)(=O)c2ccc(C)cc2)c2ccc(OC)cc21`, the T/C (dose: 100.0 mg/kg/injection, schedule: Q04DX003 (ip), vehicle: Klucel (hydroxypropylcellulose) (HPC)) is 102 % of control; the T/C (dose: 200.0 mg/kg/injection, schedule: Q04DX003 (ip), vehicle: Klucel (hydroxypropylcellulose) (HPC)) is 104 % of control; the T/C (dose: 400.0 mg/kg/injection, schedule: Q04DX003 (ip), vehicle: Klucel (hydroxypropylcellulose) (HPC)) was 94 % of control.
On to `O=C1C=C(Nc2ccccc2)c2ccccc2C1=O`, for which the T/C is 93 % of control under setting [15], 105 % of control under setting [16], 88 % of control under setting [12] and 87 % of control under setting [13].
For the compound `CN1NCc2cncnc21`, the T/C is, setting by setting: under setting [6], 107 % of control; under setting [7], 101 % of control; under setting [8], 97 % of control.
For `Cc1ncc(CNC(=O)N(CCCl)N=O)c(N)n1`, the T/C runs as follows: (dose: 1.56 mg/kg/injection, schedule: Q01DX009 (ip), vehicle: suspension in saline) 155 % of control; under setting [4], 193 % of control; under setting [5], 279 % of control; under setting [15], 164 % of control; (dose: 12.5 mg/kg/injection, schedule: Q01DX009 (ip), vehicle: suspension in saline) 322 % of control.
As for `CCC[CH2][Sn](=[S])[CH2]CCC`, the T/C is, setting by setting: (dose: 0.78 mg/kg/injection, schedule: Q01DX009 (ip), vehicle: saline) 98 % of control; (dose: 1.56 mg/kg/injection, schedule: Q01DX009 (ip), vehicle: saline) 102 % of control; (dose: 6.25 mg/kg/injection, schedule: Q01DX009 (ip), vehicle: other) 97 % of control; (dose: 6.25 mg/kg/injection, schedule: Q01DX009 (ip), vehicle: saline with Tween-80) 109 % of control; under setting [14], 107 % of control; (dose: 6.25 mg/kg/injection, schedule: Q04DX003 (ip), vehicle: other) 105 % of control.
